Results from ChEMBL document CHEMBL5137017, “Identification of NVP-CLR457 as an Orally Bioavailable Non-CNS-Penetrant pan-Class IA Phosphoinositol-3-Kinase Inhibitor” (J Med Chem, 2022).
pIC50: −log10 of the molar value.

Tests used:
[1] = target: T1, Serine/threonine-protein kinase mTOR (Homo sapiens, UniProt P42345); test: Displacement of Alexa Fluor labelled Tracer-314 from human N-terminal GST-tagged mTOR incubated for 1 hr by TR-FRET assay
cells = conditions: Rattus norvegicus, Rat1, 1 h
[2] = Stability in rat liver microsomes assessed as hepatic extraction preincubated for 3 mins followed by NADPH addition and measured after 60 mins; assay type: ADME, Microsome; conditions: read-out: ERH
[3] = Stability in human liver microsomes assessed as hepatic extraction preincubated for 3 mins followed by NADPH addition and measured after 60 mins; assay type: ADME, Microsome; conditions: read-out: ERH
[4] = Volume of distribution at steady state in Sprague-Dawley rat at 3 mg/kg, po or iv measured upto 24 hrs by LC-MS/MS analysis; assay type: ADME, organism-based; conditions: in vivo
[5] = Half life in Sprague-Dawley rat at 3 mg/kg, po or iv measured upto 24 hrs by LC-MS/MS analysis; assay type: ADME, organism-based; conditions: in vivo
[6] = AUC in Sprague-Dawley rat at 1 mg/kg, iv measured for 0.083 to 48 hrs by LC-MS/MS analysis; assay type: ADME, organism-based; design: time upper 48 hrs, dose 1 mg/kg, time lower 0.083 hrs, route iv; conditions: in vivo
[7] = Oral bioavailability in Sprague-Dawley rat at 3 mg/kg measured for 0.25 to 24 hrs by LC-MS/MS analysis; assay type: ADME, organism-based; conditions: in vivo, time 0.25-24 hrs
Tubulin (Homo sapiens) [8] = target: T2, Tubulin (Homo sapiens) (UniProt P68371+Q9H4B7+P0DPH7+P68366+Q13509+Q71U36+P04350+Q3ZCM7+P07437+P68363+Q9BQE3+Q6PEY2+Q13885+Q9BVA1+Q9BUF5); test: Binding affinity to tubulin in human A2058 cells assessed as condensed DNA score at 5 uM measured after 6 hrs by DiffQuick staining based microscopic analysis; assay type: cell-based
Tubulin (Homo sapiens) [9] = target: T2, Tubulin (Homo sapiens); test: Binding affinity to tubulin in human A2058 cells assessed as condensed DNA score at 5 uM measured after 24 hrs by DiffQuick staining based microscopic analysis; assay type: cell-based
[10] = target: T1, Serine/threonine-protein kinase mTOR; test: Binding affinity to human N-terminal GST-tagged mTOR assessed as phosphorylated 4EBP1 by TR-FRET assay
[11] = Brain to blood ratio in OF1 mouse at 1 mg/kg, iv measured at 5 mins post dose by LC-MS/MS analysis; assay type: ADME, organism-based; conditions: brain and blood, read-out: BBR
[12] = Brain to blood ratio in OF1 mouse at 1 mg/kg, iv measured at 1 hr post dose by LC-MS/MS analysis; assay type: ADME, organism-based; conditions: brain and blood, read-out: BBR
[13] = 1-octanol, logP of the compound at pH 7.4; assay type: physicochemical

pIC50 [1]	pIC50 (cells)	SMILES	also measured
5.66	6.95	Nc1ncc(-c2cc(N3CCOCC3)nc(N3C[C@H](CO)OC3=O)n2)c(C(F)(F)F)n1	
	< 5.00	C[C@H]1OC(=O)N(c2nc(-c3cnc(N)nc3C(F)(F)F)cc(N3CCOCC3)n2)[C@H]1CN1CC[S+]([O-])CC1	
5.59	7.43	C[C@@H]1OC(=O)N(c2nc(-c3cnc(N)nc3C(F)(F)F)cc(N3CCOCC3)n2)[C@H]1CO	hepatic extraction ratio at 1 h [2]: 0.49; hepatic extraction ratio at 1 h [3]: 0.78; Vdss [4]: 3.9 L/kg; half-life [5]: 5.2 h; AUC [6]: 0.708 µM·h; bioavailability [7]: 23%
5.87	7.08	C[C@H](O)[C@@H]1COC(=O)N1c1nc(-c2cnc(N)nc2C(F)(F)F)cc(N2CCOCC2)n1	
5.44	6.76	C[C@]1(CO)COC(=O)N1c1nc(-c2cnc(N)nc2C(F)(F)F)cc(N2CCOCC2)n1	
5.30	5.98	Nc1cc(C(F)(F)F)c(-c2cc(N3CCCCC3=O)nc(N3CCOCC3)n2)cn1	Activity (Tubulin (Homo sapiens) [8]): < 2%; Activity (Tubulin (Homo sapiens) [9]): < 2%
	6.82	Nc1ncc(-c2cc(N3CCCOC3=O)nc(N3CCOCC3)n2)c(C(F)(F)F)n1	
5.69	6.72	Nc1ncc(-c2cc(N3CCOCC3)nc(N3CCOCC3)n2)c(C(F)(F)F)n1	pIC50 [10]: 5.20; Activity (Tubulin (Homo sapiens) [8]): > 12%; Activity (Tubulin (Homo sapiens) [9]): > 12%
	7.09	CC1(C)OC(=O)N(c2nc(-c3cnc(N)nc3C(F)(F)F)cc(N3CCOCC3)n2)[C@H]1CO	
	5.56	Nc1cc(C(F)(F)F)c(-c2cc(N3CCOC(c4ccccc4)C3)nc(N3CCOCC3)n2)cn1 (racemic)	Kp at 5 min [11]: 4.89; Kp at 1 h [12]: 3.73
	5.75	C[C@H]1COC(=O)N1c1nc(-c2cnc(N)cc2C(F)(F)F)cc(N2CCOCC2)n1	Kp at 5 min [11]: 0.11; Kp at 1 h [12]: 0.11
	6.37	Nc1cc(C(F)(F)F)c(-c2cc(N3CCNC3=O)nc(N3CCOCC3)n2)cn1	logD [13]: 2.6
5.21	5.83	Nc1cc(C(F)(F)F)c(-c2cc(N3CCN(c4ccccc4)C3=O)nc(N3CCOCC3)n2)cn1	Activity (Tubulin (Homo sapiens) [8]): < 2%; Activity (Tubulin (Homo sapiens) [9]): < 2%
	5.88	CNC(=O)N(C)c1cc(-c2cnc(N)cc2C(F)(F)F)nc(N2CCOCC2)n1	Kp at 5 min [11]: 1.1; Kp at 1 h [12]: 0.86
	7.36	CS(=O)(=O)N1CCN(Cc2cc3nc(-c4cccc5[nH]ncc45)nc(N4CCOCC4)c3s2)CC1 [PICTILISIB]	Activity (Tubulin (Homo sapiens) [8]): < 2%; Activity (Tubulin (Homo sapiens) [9]): < 2%
5.70	7.21	Nc1ncc(-c2cc(N3CCOCC3)nc(N3C(=O)O[C@@H]4COC[C@@H]43)n2)c(C(F)(F)F)n1	
5.41	7.20	Nc1ncc(-c2cc(N3CCOCC3)nc(N3C(=O)OC[C@@H]3CO)n2)c(C(F)(F)F)n1	
5.23	6.74	Nc1ncc(-c2cc(N3CCOCC3)nc(N3C(=O)OC[C@H]3CO)n2)c(C(F)(F)F)n1	
